In article PMC4965013, “Open Source Drug Discovery with the Malaria Box Compound Collection for Neglected Diseases and Beyond” (PLoS Pathogens, 2016):

Assays:
[1] = system: P. falciparum; assay: EC50 listed in S2 Table Metabolomics (used to set the concentration tested); format: cell-based; conditions: Plasmodium falciparum; EC50 used for Factor_XEC50 in metabolomics; read-out: EC50_nM
[2] = system: P. falciparum 3D7 trophozoites; assay: Metabolomic fingerprint profiling LC-MS; format: cell-based, Plasmodium falciparum; parameters: UDP-D-glucose / ADP-D-glucose: unit not given here
[3] = metabolite level change after treatment

## COc1ccc(Br)cc1C1Nc2ccc3ccccc3c2C2=C1C(=O)CC(c1ccccc1)C2 (centres unmarked) [MMV020885]
[1]
  EC50: 180 nM
[2]; S2 Table Metabolomics, metabolite Acetyllysine
  Acetyllysine: -0.2018
[2]; S2 Table Metabolomics, metabolite N-acetyl-L-ornithine
  N-acetyl-L-ornithine: 0.05879
[2]; S2 Table Metabolomics, metabolite N-carbamoyl-L-aspartate
  N-carbamoyl-L-aspartate: 0.2499
[2]; S2 Table Metabolomics, metabolite NADPH
  NADPH: 0.3881
[2]; S2 Table Metabolomics, metabolite dAMP
  dAMP: -0.07633
[2]; S2 Table Metabolomics, metabolite dCMP
  dCMP: -0.1829
[2]; S2 Table Metabolomics, metabolite dTDP
  dTDP: -0.08159
[2]; S2 Table Metabolomics, metabolite dTMP
  dTMP: -0.06085
[2]; S2 Table Metabolomics, metabolite dTTP
  dTTP: 0.08356
[2]; S2 Table Metabolomics, metabolite dihydroorotate
  dihydroorotate: 0.4211
[2]; S2 Table Metabolomics, metabolite orotate
  orotate: -0.07163
[2]; S2 Table Metabolomics, peptide DLH
  DLH: 0.1131
[2]; S2 Table Metabolomics, peptide DLS/SDL/SID
  DLS/SDL/SID: 0.0252
[2]; S2 Table Metabolomics, peptide PD
  PD: -0.01204
[2]; S2 Table Metabolomics, peptide PEE
  PEE: -0.02185
[2]; S2 Table Metabolomics, peptide PVNF
  PVNF: 0.06588
[2]; metabolite 3-phosphoglycerate, S2 Table Metabolomics
  3-phosphoglycerate: 0.1773
[2]; metabolite ADP-D-glucose, S2 Table Metabolomics
  ADP-D-glucose: 0.1062
[2]; metabolite ATP, S2 Table Metabolomics
  ATP: 0.1529
[2]; metabolite CDP, S2 Table Metabolomics, change in metabolite level after compound treatment
  CDP: -0.1573
[2]; metabolite D-sedoheptulose-1/7-phosphate, S2 Table Metabolomics, change in metabolite level after compound treatment
  D-sedoheptulose-1/7-phosphate: -0.3333
[2]; metabolite FAD, S2 Table Metabolomics
  FAD: 0.09744
[2]; metabolite GMP, S2 Table Metabolomics, change in metabolite level after compound treatment
  GMP: 0.2606
[2]; metabolite NAD+, S2 Table Metabolomics
  NAD+: -0.4069
[2]; metabolite NADP+, S2 Table Metabolomics
  NADP+: 0.1167
[2]; metabolite Octoluse Bisphosphate, S2 Table Metabolomics, change in metabolite level after compound treatment
  Octoluse Bisphosphate: 0.1001
[2]; metabolite Pyroglutamic acid, S2 Table Metabolomics
  Pyroglutamic acid: 0.05012
[2]; metabolite UDP-D-glucose, S2 Table Metabolomics
  UDP-D-glucose: 0.09185
[2]; metabolite UDP-D-glucuronate, S2 Table Metabolomics
  UDP-D-glucuronate: 0.09622
[2]; metabolite UDP-N-acetyl-glucosamine, S2 Table Metabolomics
  UDP-N-acetyl-glucosamine: 0.0596
[2]; metabolite UDP, S2 Table Metabolomics, change in metabolite level after compound treatment
  UDP: -0.2367
[2]; metabolite UMP, S2 Table Metabolomics, change in metabolite level after compound treatment
  UMP: 0.2791
[2]; metabolite UTP, S2 Table Metabolomics, change in metabolite level after compound treatment
  UTP: -0.3268
[2]; metabolite a-ketoglutarate, S2 Table Metabolomics
  a-ketoglutarate: 0.1759
[2]; metabolite citrate/isocitrate, S2 Table Metabolomics, change in metabolite level after compound treatment
  citrate/isocitrate: -0.004418
[2]; metabolite cytidine, S2 Table Metabolomics
  cytidine: -0.005151
[2]; metabolite dATP, S2 Table Metabolomics
  dATP: 0.1038
[2]; metabolite dGMP/AMP, S2 Table Metabolomics, change in metabolite level after compound treatment
  dGMP/AMP: -0.1164
[2]; metabolite fumarate, S2 Table Metabolomics, change in metabolite level after compound treatment
  fumarate: 0.1396
[2]; metabolite glucose-1/6-phosphate, S2 Table Metabolomics, change in metabolite level after compound treatment
  glucose-1/6-phosphate: 0.3285
[2]; metabolite glycerate, S2 Table Metabolomics, change in metabolite level after compound treatment
  glycerate: 0.153
[2]; metabolite guanine, S2 Table Metabolomics, change in metabolite level after compound treatment
  guanine: 0.03354
[2]; metabolite guanosine, S2 Table Metabolomics, change in metabolite level after compound treatment
  guanosine: 0.1241
[2]; metabolite hypoxanthine, S2 Table Metabolomics
  hypoxanthine: 0.09912
[2]; metabolite indole, S2 Table Metabolomics
  indole: 0.3168
[2]; metabolite inosine, S2 Table Metabolomics, change in metabolite level after compound treatment
  inosine: 0.1551
[2]; [3]
  2_3-Diphosphoglyceric acid: 0.06597
  4-phosphopantothenate: 0.04165
  6-phospho-D-gluconate: 0.04292
  FMN: 0.1362
  IMP: 0.02368
  Pyrophosphate: 0.2656
  Sedoheptoluse bisphosphate: 0.01639
  cyclic-AMP: -0.09684
  glutathione disulfide: 0.06546
  lactate: 0.1283
  myo-inositol: 0.176
[2]; metabolite nicotinate, S2 Table Metabolomics
  nicotinate: 0.1246
[2]; metabolite ornithine, S2 Table Metabolomics
  ornithine: -0.2474
[2]; metabolite phosphoenolpyruvate, S2 Table Metabolomics
  phosphoenolpyruvate: 0.1975
[2]; metabolite pyruvate, S2 Table Metabolomics, change in metabolite level after compound treatment
  pyruvate: 0.1649
[2]; metabolite ribose-phosphate, S2 Table Metabolomics
  ribose-phosphate: 0.4239
[2]; metabolite sarcosine/alanine, S2 Table Metabolomics, change in metabolite level after compound treatment
  sarcosine/alanine: -0.04603
[2]; metabolite sn-glycerol-3-phosphate, S2 Table Metabolomics
  sn-glycerol-3-phosphate: 0.03018
[2]; metabolite succinate/methylmalonic acid, S2 Table Metabolomics, change in metabolite level after compound treatment
  succinate/methylmalonic acid: 0.08193
[2]; metabolite uridine, S2 Table Metabolomics, change in metabolite level after compound treatment
  uridine: 0.101
[2]; metabolite xanthosine, S2 Table Metabolomics, change in metabolite level after compound treatment
  xanthosine: 0.04674
